{"source": "patent US9481646B2", "about": "“Low calcemic, highly antiproliferative, analogs of calcitriol” (The Johns Hopkins University, priority 2007, dated 2016)", "key": {"[1]": {"test": "in vivo calciuric activity, calcium levels in rat urine", "conditions": "relative activity (A = 1)"}, "[2]": {"tested_on": "murine keratinocytes", "test": "antiproliferative activity in murine keratinocytes (standard in vitro protocol)", "type": "cell-based", "conditions": "Mus musculus, Keratinocyte, read-out: Antiproliferative IC50"}, "[3]": {"molecular_target": "T1, human recombinant VDR (Homo sapiens, UniProt P11473)", "T1 construct": "purchased Biomol SE-140", "T1 sequence (P11473 1-427)": "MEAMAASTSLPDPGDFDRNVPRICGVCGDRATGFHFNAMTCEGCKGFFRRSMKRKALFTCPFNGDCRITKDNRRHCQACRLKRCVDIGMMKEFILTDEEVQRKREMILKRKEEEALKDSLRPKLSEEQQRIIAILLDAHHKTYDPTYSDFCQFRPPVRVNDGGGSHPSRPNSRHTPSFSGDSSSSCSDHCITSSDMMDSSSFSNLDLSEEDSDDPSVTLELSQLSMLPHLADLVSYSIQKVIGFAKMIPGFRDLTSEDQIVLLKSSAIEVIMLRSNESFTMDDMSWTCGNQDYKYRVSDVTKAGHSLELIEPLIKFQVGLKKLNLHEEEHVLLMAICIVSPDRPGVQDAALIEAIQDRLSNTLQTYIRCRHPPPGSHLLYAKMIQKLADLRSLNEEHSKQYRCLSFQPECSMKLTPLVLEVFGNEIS", "test": "competitive binding to the human VDR"}}}
{"compound": "C=C1/C(=C\\C=C2/CCC[C@]3(C)[C@@H]([C@H](C)CCCC(C)(C)O)CC[C@@H]23)C[C@@H](O)C[C@@H]1O", "note": "[A, 1α,25-dihydroxyvitamin D3, reference compound]", "values": [{"measurement": "Calciuria Activity Compared to 1", "setting": "[1]", "value": 1}, {"measurement": "IC50", "setting": "[2]", "value": 80, "unit": "nM"}]}
{"compound": "C=C1/C(=C\\C=C2/CCC[C@]3(C)[C@@H]([C@H](C)COCC4=CCCCC4(C)C)CC[C@@H]23)C[C@@H](O)C[C@@H]1O", "note": "[Analog 1d]", "values": [{"measurement": "Calciuria Activity Compared to 1", "setting": "[1]", "value": "<0.02"}, {"measurement": "IC50", "setting": "[2]", "value": 50, "unit": "nM"}, {"measurement": "IC50", "setting": "[3]", "value": 300, "unit": "nM"}]}
